Where two headings read alike, the source gives them in different places. Some results are limits rather than exact numbers.

For orientation: EC50 means the concentration at which the effect is half-maximal. A word on the Emax: it is the maximal effect, on the per cent scale that the assay sets.

The target of one experiment is T1, mRORγ (Mus musculus, UniProt P51450).
T1 construct: expressed in transfected cells; host or cells: CHO cells, transient transfection
The experiment in a line: Transcriptional assay, Gal4-mRORγ with luciferase reporter in CHO cells. It counts as cell-based. How it is done: The complete Gal4-mRORγ nucleotide sequence is shown below:
(§1) A firefly luciferase reporter gene for Gal4 DBD hybrid receptors, such as Gal4-RORγ, contains five copies of the Gal4 17-mer response element in its promoter and the coding sequence for firefly luciferase (pG5-luc, Promega). CHO (Chinese Hamster Ovary) cells were cultured in Ham's F12 medium supplemented with 10% fetal calf serum (Gemini Biologicals), 10 μg/ml penicillin and streptomycin, and were maintained in a humidified 37° C. incubator (Thermo Electron, Steri-Cycle) with 5% CO2. 24 hours before transfection, cells were plated in T175 flasks (5×10^6 cells/flask) or T75 flasks (1.7×10^6 cells/flask). Transient transfection of CHO cells was performed using TransIT-CHO reagents (Minis, Madison, Wis.) with a mixing ratio of 2:6:1 between plasmid DNA (in μg), TransIT-CHO (in μl) and CHO-mojo (in μl).
(§2) Plates are maintained at 37° C. in a humidified atmosphere with 7% CO2 overnight. Four (4) hours after cell seeding, compounds dissolved in DMSO at 10 mM were added to cells at final concentrations of 20 micromolar (μM) to 20 nanomolar (nM) in 0.2% DMSO in triplicate plates. Approximately 40 hours later, cytotoxicity in the assay well was characterized by addition of the dye resazurin (O'Brien, Wilson et al. 2000) to a final concentration of 3 μM. […] Percent viability was determined as 2 hour fluorescence, minus background at t=0 hours, normalized to DMSO controls. For detection of luciferase activity, media was removed from plates after the measurement of resazurin conversion, and SteadyLite luciferase reagent (Perkin-Elmer) was added (30 μl/well). Luminescence is detected with a Victor 2-V plate reader (Perkin-Elmer) and normalized to luciferase activity of DMSO control wells alone.
Background: A reporter such as luciferase makes a cellular process visible.

Another experiment addresses T2, mRORγ LBD (Mus musculus, UniProt P51450).
T2 construct: made in house; host or cells: Sf9 insect cells, baculovirus; cleared lysate used directly
T2 sequence (P51450 251-516): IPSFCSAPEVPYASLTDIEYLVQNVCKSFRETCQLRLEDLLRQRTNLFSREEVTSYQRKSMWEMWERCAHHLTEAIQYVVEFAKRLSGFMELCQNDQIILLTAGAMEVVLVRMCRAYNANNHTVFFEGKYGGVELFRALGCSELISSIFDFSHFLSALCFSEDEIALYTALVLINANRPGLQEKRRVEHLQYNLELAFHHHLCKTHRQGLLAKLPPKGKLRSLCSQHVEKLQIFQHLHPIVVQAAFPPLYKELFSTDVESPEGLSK
As to the kind of experiment: Biochemical assay, coregulatory peptide recruitment to GST-RORγ LBD (FRET). The text has this:
GST-RORγ was generated by subcloning the RORγ-LBD into pET-41a, a vector which expresses GST fusion proteins in bacteria.
The cloning steps for GST-RORγ were as follows. The mRORγ LBD was excised from Gal4-mRORγ (see above for cloning steps) at BamHI and HindIII sites of Sequence 1 and cloned into the corresponding sites of pET-41a(+) (EMD Biosciences, San Diego, Calif.). A GST-mRORγ fragment was then excised from pET-41a(+) at XbaI and XhoI sites and cloned into a pcDNA3.1vector (Invitrogen, Carlsbad, Calif.) restricted at NheI and XhoI sites. Plasmid GST-mRORγ-pcDNA3.1 was used as a PCR template to generate a GST-mRORγ fragment that was later cloned into pENTR/D-TOPO vector (Invitrogen, Carlsbad, Calif.) by standard cloning techniques recommended by the manufacturer of the vector. The nucleotide sequence of GST-mRORγ is shown below:
For baculoviral expression of RORγ, the cDNA fragment of GST-RORγ— LBD, was subcloned from pET-41a into the pENTR/D-TOPO vector using a commercially-available kit (BaculoDirect, Invitrogen). Briefly, GST-RORγ carried by pENTR/D-TOPO was transfected into mono-layer Sf9 cells (8×10^5/well in 6-well plates) by Cellfectin (Invitrogen). Sf9 cells were incubated at 27° C. in a non-humidified incubator for 72 hours. Cell media was collected as P1 viral stock and used to further infect Sf9 cells to generate P2 and P3 virus. […] A plaque assay was performed to determine the titer of P3 virus and to isolate single plaques. P4 virus was generated from a single plaque and propagated on a larger scale.
Adherent SF9 cells were infected with baculovirus carrying GST-RORγ and were cultured for 72 hours. Sf9 cell were then subject to a brief sonication in a lysis buffer (20 mM phosphate, pH 6.8, 50 mM KCl, 50 mM NaCl, 0.5 mM EDTA, 50% glycerol, 0.001% NP-40 and 1 mM DTT) and centrifuged at 3000 rpm for 15 minutes. […] Cleared cell lysate was stored at −70° C. and is directly utilized in the coregulatory peptide recruitment assay.
The labeled probes anti-GST-APC and SA-RPE were purchased from Prozyme (San Leandro, Calif.). Compounds were added directly from a DMSO solution to a final concentration of 1-2% DMSO. Fluorescence was measured on a Wallac Victor 2 V plate reader equipped with a 670/40 nm filter (Omega Optical, Brattleboro, Vt.) for APC emission (Channel A) and a 600/25 bandpass filter for monitoring the RPE emission (Channel B).

The target of experiment [1] is T3, mLXRα (Liver X receptor alpha) (Mus musculus, UniProt Q9Z0Y9).
T3 construct: 172-455; expressed in transfected cells; host or cells: CHO cells, transient transfection
T3 sequence (Q9Z0Y9 172-445 limits assumed): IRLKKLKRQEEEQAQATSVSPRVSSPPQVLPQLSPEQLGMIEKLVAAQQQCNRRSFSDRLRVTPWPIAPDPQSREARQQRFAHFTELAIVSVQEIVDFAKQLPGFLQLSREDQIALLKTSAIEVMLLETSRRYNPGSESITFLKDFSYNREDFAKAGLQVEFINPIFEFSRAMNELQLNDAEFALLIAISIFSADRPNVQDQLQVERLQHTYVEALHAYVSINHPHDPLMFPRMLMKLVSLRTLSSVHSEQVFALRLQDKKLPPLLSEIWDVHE
The experiment in a line: Transcriptional assay of LXRα (Gal4-LXRα hybrid). The following applies: for EC50: Table 7, no unit printed for this column (b114 gives 1.5 μM for OR-1050), read-out: Transcriptional Assay of LXRα EC50; for specificity for RORγ versus LXRα: comparison of transcriptional assays for RORγ and LXRα (Table 7). It counts as cell-based. On the procedure:
as §1, §2
A transcriptional assay for LXRα, using a Gal4-LXRα hybrid, was implemented in order to compare RORγ ligand potencies. In addition to LXRα, transcriptional assays for a number of other major nuclear receptors were developed.

The target in the next experiment is T4, human RORγ (Homo sapiens, UniProt P51449).
T4 construct: expressed in transfected cells; host or cells: CHO cells, transient transfection
T4 sequence (P51449 253-518): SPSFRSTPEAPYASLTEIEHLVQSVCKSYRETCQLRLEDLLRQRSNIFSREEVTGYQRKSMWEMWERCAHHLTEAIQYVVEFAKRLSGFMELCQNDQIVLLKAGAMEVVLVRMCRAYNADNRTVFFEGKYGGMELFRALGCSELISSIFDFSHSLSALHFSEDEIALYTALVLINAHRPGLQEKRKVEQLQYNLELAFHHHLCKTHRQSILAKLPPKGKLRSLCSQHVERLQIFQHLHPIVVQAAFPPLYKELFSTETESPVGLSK
The experiment in a line: Transcriptional assay of human RORγ (Gal4-hRORγ). The class given is cell-based. The following applies: Table 4B. How it is done: The complete Gal4-hRORγ nucleotide sequence is shown below:
as §1, §2

The target of experiment [2] is T5, hPR (progesterone receptor) (Homo sapiens, UniProt P06401).
T5 construct: 687-933; expressed in transfected cells; host or cells: CHO cells, transient transfection
T5 sequence (P06401 687-933): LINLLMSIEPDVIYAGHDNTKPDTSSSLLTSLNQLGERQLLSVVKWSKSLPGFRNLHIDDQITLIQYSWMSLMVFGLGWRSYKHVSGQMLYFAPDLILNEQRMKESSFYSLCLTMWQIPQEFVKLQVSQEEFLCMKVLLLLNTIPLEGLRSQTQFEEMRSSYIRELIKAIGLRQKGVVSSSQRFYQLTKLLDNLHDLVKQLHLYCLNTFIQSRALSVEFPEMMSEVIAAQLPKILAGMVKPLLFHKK
The experiment in a line: Crossreactive receptor transcriptional assay (Gal4 hybrid). The class given is cell-based. The following applies: activity of standard ligand at 20 μM. How it is done: as §1, §2

The test system of experiment [3] is TH-17 cell differentiation from naïve CD4+ T cells. As to the kind of experiment: Differentiation of naïve CD4+ T cells, intracellular IL-17/IFN-γ staining by FACS (TH-17 protocol, TGFβ + IL-6). The class given is cell-based, mouse. The following applies: Table 8, naïve CD4 cells, 5 days, mean ±SD. On the technique in general: In flow cytometry, cells or beads pass a laser one at a time.

[4] abbreviates: Table 1, antagonists, inhibition of basal Gal4-mRORγ transcription in CHO cells, read-out: Assay EC50 in micromolar at mRORγ Transcriptional.
Setting [5] is: Table 7, taken from Table 1, read-out: Assay EC50 in micromolar at mRORγ Transcriptional.
Where [6] appears, read: Table 1, mRORγ and peptide K1, read-out: Assay EC50 in micromolar at mRORγ Biochemical.
The mark [7] stands for this setting: Table 7, taken from Table 1 (peptide K1), read-out: Assay EC50 in micromolar at mRORγ Biochemical.
The mark [8] stands for this setting: Table 4A, medians of two or more assays, unit inferred, read-out: EC50 Transcriptional.
Where [9] appears, read: Table 4A, peptide K1, no agonist present, medians of two or more assays, unit inferred, read-out: EC50 Biochemical.

T1 sequence (P51450 with tags, fused parts or gaps): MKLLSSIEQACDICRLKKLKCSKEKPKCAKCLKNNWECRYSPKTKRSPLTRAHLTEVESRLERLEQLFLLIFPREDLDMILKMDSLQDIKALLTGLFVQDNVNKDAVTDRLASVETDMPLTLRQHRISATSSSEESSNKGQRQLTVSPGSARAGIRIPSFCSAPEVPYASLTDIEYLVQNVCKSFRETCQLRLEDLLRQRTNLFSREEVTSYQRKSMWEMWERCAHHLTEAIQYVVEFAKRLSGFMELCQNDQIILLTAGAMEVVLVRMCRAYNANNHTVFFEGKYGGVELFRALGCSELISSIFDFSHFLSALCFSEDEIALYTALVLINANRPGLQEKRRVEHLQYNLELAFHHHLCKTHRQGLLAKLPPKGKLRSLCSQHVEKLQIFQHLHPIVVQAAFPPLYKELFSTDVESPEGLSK

In the case of `O=C(O)CN(c1ccc(C(O)(C(F)(F)F)C(F)(F)F)cc1)S(=O)(=O)c1ccccc1` [OR-1046, {Benzenesulfonyl-[4-(2,2,2-trifluoro-1-hydroxy-1-trifluoromethyl-ethyl)-phenyl]-amino}-acetic acid], the EC50 was more than 20 µM on mRORγ (setting [4]); more than 20 µM at mRORγ (setting [5]); more than 100 µM at mRORγ LBD (setting [6]); more than 100 µM at mRORγ LBD (setting [7]); more than 100 µM in experiment [1]. Further, the Emax in experiment [1] is less than 5%.

`CCCCc1ccc(S(=O)(=O)N(CC)c2ccc(C(O)(C(F)(F)F)C(F)(F)F)cc2)cc1` [OR-1047, 4-Butyl-N-ethyl-N-[4-(2,2,2-trifluoro-1-hydroxy-1-trifluoromethyl-ethyl)-phenyl]-benzenesulfonamide]: the EC50 was 3.6 µM on mRORγ (setting [4]); 3.6 µM at mRORγ (setting [5]); 5.8 µM at mRORγ LBD (setting [6]); 5.8 µM at mRORγ LBD (setting [7]); more than 20 µM in experiment [1]. In experiment [1], this compound displayed an Emax of less than 5%. The “specificity for RORγ versus LXRα” value in experiment [1] was “more specific for RORγ than LXRα”.

Regarding `CCN(c1ccc(C(O)(C(F)(F)F)C(F)(F)F)cc1)S(=O)(=O)c1ccc(Br)cc1` [OR-1048, 4-Bromo-N-ethyl-N-[4-(2,2,2-trifluoro-1-hydroxy-1-trifluoromethyl-ethyl)-phenyl]-benzene sulfonamide], the EC50 came to 0.12 µM at mRORγ (setting [4]); 0.12 µM at mRORγ (setting [5]); 0.42 µM at mRORγ LBD (setting [6]); 0.42 µM at mRORγ LBD (setting [7]); 0.57 µM in experiment [1]. In addition, in experiment [1], the Emax was more than 80%. Besides, the “specificity for RORγ versus LXRα” value in experiment [1] is reported as “more specific for RORγ than LXRα”.

On to `CCN(c1ccc(C(O)(C(F)(F)F)C(F)(F)F)cc1)S(=O)(=O)c1ccc(C)cc1` [OR-1052, N-Ethyl-4-methyl-N-[4-(2,2,2-trifluoro-1-hydroxy-1-trifluoromethyl-ethyl)-phenyl]-benzenesulfonamide], for which the concentration for a half-maximal effect (EC50) at mRORγ (setting [4]) amounted to 0.21 µM; on mRORγ (setting [5]) it was 0.21 µM; at mRORγ LBD (setting [6]), 0.89 µM; at mRORγ LBD (setting [7]), 0.89 µM; in experiment [1], 0.81 µM. This compound showed an Emax in experiment [1] of more than 80%. Besides, the “specificity for RORγ versus LXRα” value in experiment [1] is “more specific for RORγ than LXRα”.

Take `CCn1c(CNc2cccc(Cl)c2)nnc1SCC(=O)Nc1cccc2ccccc12` [OR-133097, 2-{5-[(3-Chloro-phenylamino)-methyl]-4-ethyl-4H-[1,2,4]triazol-3-ylsulfanyl}N-naphthalen-1-yl-acetamide]: the 50% effective concentration (EC50) was determined as 1.44 µM at mRORγ (setting [8]), 1.34 µM at mRORγ LBD (setting [9]) and 5 µM on human RORγ.

`CCn1c(CNc2cccc(C(F)(F)F)c2)nnc1SCC(=O)Nc1cccc2ccccc12` [OR-133099, 2-{4-Ethyl-5-[(3-trifluoromethyl-phenylamino)-methyl]-4H-[1,2,4]triazol-3-ylsulfanyl}N-naphthalen-1-yl-acetamide]: the EC50 is 1.04 µM at mRORγ (setting [8]), 1.33 µM at mRORγ LBD (setting [9]) and 2.4 µM on human RORγ.

`Cn1c(CNc2cccc(Cl)c2)nnc1SCC(=O)Nc1cccc2ccccc12` [OR-133167, 2-{5-[(3-Chloro-phenylamino)-methyl]-4-methyl-4H-[1,2,4]triazol-3-ylsulfanyl}N-naphthalen-1-yl-acetamide]: the EC50 worked out at 3.3 µM on mRORγ (setting [8]), 3.4 µM at mRORγ LBD (setting [9]) and 9.4 µM on human RORγ.

Turning to `CCn1c(CNc2ccc(C)c(Cl)c2)nnc1SCC(=O)Nc1cccc2ccccc12` [OR-133171, 2-{5-[(3-Chloro-4-methyl-phenylamino)-methyl]-4-ethyl-4H-[1,2,4]triazol-3-ylsulfanyl}N-naphthalen-1-yl-acetamide], the EC50 at mRORγ (setting [8]) was found to be 0.49 µM; at mRORγ LBD (setting [9]) it was 0.44 µM; on human RORγ, 1.7 µM.

Regarding `CC(=O)[C@H]1CC[C@H]2[C@@H]3CCC4=CC(=O)CC[C@]4(C)[C@H]3CC[C@]12C` [Progesterone, progesterone, reference compound], in experiment [2], the “Efficacy at hPR” value came out at 6X.

As for “IL-6: exogenous cytokine used for TH-17 differentiation”, in experiment [3] (20 ng/ml), the “IL-17 (%)” value came out at 1.20 ± 0.04%.

Consider “TGFβ1: exogenous cytokine used for TH-17 differentiation”, for which the “IL-17 (%)” value in experiment [3] (4 ng/ml) is 0.21 ± 0.02%.
